Laboratory results taken from patent publication US12612411B1, “Imidazopyrazine derivatives, process for preparation thereof, and their uses as luciferins” (INSTITUT PASTEUR, priority 2017, dated 2026).

Biological target: T1, nanoKAZ luciferase (Oplophorus gracilirostris, UniProt Q9GV45, A31E/A60N/A81I/F95D/I117V/K70R/L54V/L99Q/M102K/N193R/P142E/Q151K/Q38R/Q45L/V71I/Y165I)
T1 construct: luciferase catalytic domain (nanoKAZ, 19 kDa) from the Oplophorus-derived luciferase; host or cells: cell-free: 1-Step Human Coupled IVT Kit, pT7CFE1-based vector
Assay: In vitro bioluminescence screening of imidazo[1,2-a]pyrazin-3(7H)-ones with nanoKAZ expressed in vitro (96-well luminometer, 2 h kinetic)
Format: biochemical
Conditions: furimazine = 1
Experimental: General protocol for the generation of solutions of imidazo[1,2-a]pyrazin-3(7H)-one Q by acidic hydrolysis of imidazo[1,2-a]pyrazin-3-yl acetate derivatives P. The considered acetate P (1 mg) was dissolved in DMSO (0.2 mL) and then diluted by adding a solution of acidic ethanol (0.3 ml) made from the addition of 37% hydrochloric acid (100 μl) on 100% ethanol (12 mL). This 0.5 mL solution was incubated at 50° C. for 2 hours to give a stock solution which was then stored at −80° C. […] Nota: these conditions are only adapted to the hydrolysis of the protecting group (as defined above) of the oxygen on position 2 of the imidazo[1,2-a]pyrazine ring system and not to the hydrolysis of any additional acetyl groups eventually present elsewhere on the substrate of this reaction.
The representative bioluminescence curves shown in the FIG. 2 provided an assessment for furimazine (Q-1), 8-benzyl-2-(furan-2-ylmethyl)-6-(4-hydroxyphenyl)imidazo[1,2-a]pyrazin-3 (7/1)-one (Q-80), 8-(2-fluorobenzyl)-2-(furan-2-ylmethyl)-6-phenylimidazo[1,2-a]pyrazin-3(7H)-one (Q-84), and 8-(2-fluorobenzyl)-2-((5-methylfuran-2-yl)methyl)-6-phenylimidazo[1,2-a]pyrazin-3(7H)-one (Q-85) was obtained using a luciferase expressed in vitro as described in the following. The nanoKAZ DNA template was cloned into Thermo Scientific pT7CFE1-based vector and nanoKAZ was expressed using ThermoFisher Scientific 1-Step Human Coupled IVT Kit—DNA (ref. 88881) according to the manufacturer instructions. The resulting reaction mix was diluted 400 times in buffer (DPBS (Gibco)+0.1% (v/v) Tween 20) and conserved at −80° C. The screening of the imidazo[1,2-a]pyrazin-3(7H)-ones was performed in 96 well plates using 50 μL/well of a 1/20 dilution in DPBS (Gibco)+0.1% (v/v) Tween 20 of the nanoKAZ solution.
To illustrate the bioluminescence properties improvement achieved for many of the imidazo[1,2-a]pyrazin-3(7H)-ones described here, four values are provided in Table 1: maximum intensity (V1), signal half-life (V2), area under the curve for ten minutes (V3), and area under the curve for two hours (V4), normalized using furimazine (Q-1) as a reference.
The bioluminescence properties of the tested compounds are considered to be improved when at least one of the values V1-V4 is above 1, and when none of the V1-V4 values is 0.05 or below.
By following the hydrolysis protocol described above, the following imidazo[1,2-a]pyrazin-3(7H)-ones luciferins Q were made in situ from the corresponding O-protected imidazo[1,2-a]pyrazines P and evaluated for their bioluminescence properties (maximum intensity (V1), signal half-life (V2), area under the curve for […], normalized using furimazine (Q-1) as a reference): […]

[1] = second table, luciferins made in situ from O-protected P

T1 sequence (Q9GV45 other isoform, or with tags, fused parts or gaps with the stated changes): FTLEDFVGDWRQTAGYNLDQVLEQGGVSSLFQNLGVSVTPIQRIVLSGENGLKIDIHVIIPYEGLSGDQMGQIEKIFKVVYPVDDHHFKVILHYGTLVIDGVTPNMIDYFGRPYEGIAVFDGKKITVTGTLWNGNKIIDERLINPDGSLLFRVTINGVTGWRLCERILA

SMILES	V1: maximum intensity, normalized using furimazine (Q-1) as a reference (Table 1)	V3: area under the curve for ten minutes, normalized using furimazine (Q-1) as a reference (Table 1)	V4: area under the curve for two hours, normalized using furimazine (Q-1) as a reference (Table 1)	V3: area under the curve for 2 hours, normalized using furimazine (Q-1) as a reference (second table)	V4: area under the curve for ten minutes, normalized using furimazine (Q-1) as a reference (second table)	V1: maximum intensity, normalized using furimazine (Q-1) as a reference [1]
O=c1c(Cc2ccco2)nc2c(Cc3ccccc3)[nH]c(-c3ccc(O)cc3)cn1-2 [Q-80, 8-benzyl-2-(furan-2-ylmethyl)-6-(4-hydroxyphenyl)imidazo[1,2-a]pyrazin-3(7H)-one, reference compound]	3.06	0.79	0.14			
O=c1c(Cc2ccco2)nc2c(Cc3cccc(F)c3)[nH]c(-c3ccccc3)cn1-2 [Q-81, 8-(3-fluorobenzyl)-2-(furan-2-ylmethyl)-6-phenylimidazo[1,2-a]pyrazin-3(7H)-one]	0.82	0.92	1.31			
Cc1cccc(Cc2nc3c(Cc4ccccc4F)[nH]c(-c4ccccc4)cn-3c2=O)c1 [Q-82, 8-(2-fluorobenzyl)-2-(3-methylbenzyl)-6-phenylimidazo[1,2-a]pyrazin-3(7H)-one]	1.36	1.38	0.84			
COc1cccc(Cc2nc3c(Cc4ccccc4F)[nH]c(-c4ccccc4)cn-3c2=O)c1 [Q-83, 8-(2-fluorobenzyl)-2-(3-methoxybenzyl)-6-phenylimidazo[1,2-a]pyrazin-3(7H)-one]	1.46	1.49	1.12			
O=c1c(Cc2ccco2)nc2c(Cc3ccccc3F)[nH]c(-c3ccccc3)cn1-2 [Q-84, 8-(2-fluorobenzyl)-2-(furan-2-ylmethyl)-6-phenylimidazo[1,2-a]pyrazin-3(7H)-one]	0.84	0.91	1.18			
Cc1ccc(Cc2nc3c(Cc4ccccc4F)[nH]c(-c4ccccc4)cn-3c2=O)o1 [Q-85, 8-(2-fluorobenzyl)-2-((5-methylfuran-2-yl)methyl)-6-phenylimidazo[1,2-a]pyrazin-3(7H)-one]	2.3	2.4	1.81			
CCc1ccc(Cc2nc3c(Cc4ccccc4F)[nH]c(-c4ccccc4)cn-3c2=O)o1 [Q-96, 2-((5-ethylfuran-2-yl)methyl)-8-(2-fluorobenzyl)-6-phenylimidazo[1,2-a]pyrazin-3(7H)-one]	2.51	2.68	1.98			
Cc1ccc(Cc2nc3c(Cc4cccc(F)c4)[nH]c(-c4ccccc4)cn-3c2=O)o1 [Q-97, 8-(3-fluorobenzyl)-2-((5-methylfuran-2-yl)methyl)-6-phenylimidazo[1,2-a]pyrazin-3(7H)-one]	2.04	2.20	2.04			
Cc1ccc(Cc2nc3c(Cc4ccccc4Cl)[nH]c(-c4ccccc4)cn-3c2=O)o1 [Q-98, 8-(2-chlorobenzyl)-2-((5-methylfuran-2-yl)methyl)-6-phenylimidazo[1,2-a]pyrazin-3(7H)-one]	1.18	1.28	1.20			
CCc1ccc(Cc2nc3c(Cc4cccc(F)c4)[nH]c(-c4ccccc4)cn-3c2=O)o1 [Q-99, 2-((5-ethylfuran-2-yl)methyl)-8-(3-fluorobenzyl)-6-phenylimidazo[1,2-a]pyrazin-3(7H)-one]	1.99	2.13	2.08			
Cc1cccc(Cc2nc3c(Cc4cccc(F)c4)[nH]c(-c4ccccc4)cn-3c2=O)c1 [Q-100, 8-(3-fluorobenzyl)-2-(3-methylbenzyl)-6-phenylimidazo[1,2-a]pyrazin-3(7H)-one]	1.25	1.33	1.04			
Cc1ccc(Cc2nc3c(Cc4cccc(F)c4)[nH]c(-c4ccccc4F)cn-3c2=O)o1 [Q-105, 8-(3-fluorobenzyl)-6-(2-fluorophenyl)-2-((5-methylfuran-2-yl)methyl)imidazo[1,2-a]pyrazin-3(7H)-one]				2.01	1.72	2.04
O=c1c(Cc2ccco2)nc2c(Cc3cccc(F)c3F)[nH]c(-c3ccccc3)cn1-2 [Q-107, 8-(2,3-difluorobenzyl)-2-(furan-2-ylmethyl)-6-phenylimidazo[1,2-a]pyrazin-3(7H)-one]				1.04	1.27	1.03
Cc1ccc(Cc2nc3c(Cc4cccc(F)c4F)[nH]c(-c4ccccc4)cn-3c2=O)o1 [Q-108, 8-(2,3-difluorobenzyl)-2-((5-methylfuran-2-yl)methyl)-6-phenylimidazo[1,2-a]pyrazin-3(7H)-one]				3.09	2.1	3.15
O=c1c(Cc2ccccc2)nc2c(Cc3cccc(F)c3F)[nH]c(-c3ccccc3)cn1-2 [Q-117, 2-benzyl-8-(2,3-difluorobenzyl)-6-phenylimidazo[1,2-a]pyrazin-3(7H)-one]				1.94	0.7	2.31
Cc1ccc(Cc2nc3c(Cc4c(F)cccc4F)[nH]c(-c4ccccc4)cn-3c2=O)o1 [Q-121, 8-(2,6-difluorobenzyl)-2-((5-methylfuran-2-yl)methyl)-6-phenylimidazo[1,2-a]pyrazin-3(7H)-one]				1.43	1.37	1.41
Cc1cc(Cc2nc3c(Cc4cccc(F)c4F)[nH]c(-c4ccccc4)cn-3c2=O)oc1C [Q-124, 8-(2,3-difluorobenzyl)-2-((4,5-dimethylfuran-2-yl)methyl)-6-phenylimidazo[1,2-a]pyrazin-3(7H)-one]				2.29	1.03	2.43
CCc1ccc(Cc2nc3c(Cc4cccc(F)c4F)[nH]c(-c4ccccc4)cn-3c2=O)o1 [Q-127, 8-(2,3-difluorobenzyl)-2-((5-ethylfuran-2-yl)methyl)-6-phenylimidazo[1,2-a]pyrazin-3(7H)-one]				2.69	1.55	2.81
CCc1ccc(Cc2nc3c(Cc4c(F)cccc4F)[nH]c(-c4ccccc4)cn-3c2=O)o1 [Q-129, 8-(2,6-difluorobenzyl)-2-((5-ethylfuran-2-yl)methyl)-6-phenylimidazo[1,2-a]pyrazin-3(7H)-one]				1.37	1.32	1.41
